Test results: PubChem BioAssay (NCI)
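How tested: cells in 96-well plates exposed to compound for 48 hours at five concentrations. The concentration for 50% growth inhibition is given as GI50. TGI is the concentration that stops growth completely.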

Tests used:
Experiment in all cases: NCI-60 cell line screen, 48 h
SN12C renal = tested on: SN12C renal
HCC-2998 colon = tested on: HCC-2998 colon
SR leukemia = tested on: SR leukemia
SF-268 CNS = tested on: SF-268 CNS
OVCAR-3 ovarian = tested on: OVCAR-3 ovarian
SK-MEL-2 melanoma = tested on: SK-MEL-2 melanoma
MALME-3M melanoma = tested on: MALME-3M melanoma
SNB-75 CNS = tested on: SNB-75 CNS
NCI/ADR-RES ovarian = tested on: NCI/ADR-RES ovarian
HS 578T breast = tested on: HS 578T breast

| Compound | TGI (SN12C renal) | TGI (HCC-2998 colon) | TGI (SR leukemia) | TGI (SF-268 CNS) | TGI (OVCAR-3 ovarian) | TGI (SK-MEL-2 melanoma) | TGI (MALME-3M melanoma) | TGI (SNB-75 CNS) | TGI (NCI/ADR-RES ovarian) | TGI (HS 578T breast) | GI50 (SN12C renal) | GI50 (SR leukemia) | GI50 (SF-268 CNS) | GI50 (SK-MEL-2 melanoma) | GI50 (NCI/ADR-RES ovarian) | GI50 (MALME-3M melanoma) | GI50 (SNB-75 CNS) | GI50 (HCC-2998 colon) | GI50 (OVCAR-3 ovarian) | GI50 (HS 578T breast) |
| --- | --- | --- | --- | --- | --- | --- | --- | --- | --- | --- | --- | --- | --- | --- | --- | --- | --- | --- | --- | --- |
| COc1cccc(C=O)c1C(=O)c1cc(O)ccc1O | > 100 µM | > 100 µM | 24.1 µM | > 55.4 µM | 45.5 µM | > 100 µM | 37.5 µM | > 100 µM | – | – | – | – | – | – | – | – | – | – | – | – |
| CC#C[C@]1(O)CCC2[C@@H]3CCC4=CC(=O)CCC4=C3[C@@H](c3ccc(N(C)C)cc3)C[C@@]21C (stereo not given in full) | 52 µM | – | 37.1 µM | 27.6 µM | 23.5 µM | – | 42 µM | – | 89.3 µM | 33.9 µM | – | – | – | – | – | – | – | – | – | – |
| COc1ccc(Nc2nc3cc(C(F)(F)F)ccc3nc2-c2ccccc2)cc1OC | > 100 µM | > 100 µM | > 100 µM | > 100 µM | > 100 µM | > 100 µM | 85.8 µM | > 100 µM | – | – | – | – | – | – | – | – | – | – | – | – |
| NC1N=Nc2ccccc21 (stereo not given) | > 100 µM | > 100 µM | > 100 µM | > 100 µM | > 100 µM | > 100 µM | > 100 µM | > 100 µM | – | – | – | – | – | – | – | – | – | – | – | – |
| COc1cccc2c1OC1Sc3ccccc3-c3nn(-c4ccccc4)c-2c31 (stereo not given) | – | > 100 µM | – | > 100 µM | > 100 µM | > 100 µM | > 100 µM | > 100 µM | – | – | – | – | – | – | – | – | – | – | – | – |
| O=C(C=Nc1ccccc1C(=O)[O-])c1cccs1.O=C(C=Nc1ccccc1C(=O)[O-])c1cccs1.[Ni+2] | > 100 µM | > 100 µM | > 100 µM | > 100 µM | > 100 µM | > 100 µM | > 100 µM | – | – | – | – | – | – | – | – | – | – | – | – | – |
| O=[N+]([O-])c1cc(-c2nc(=S)[nH][nH]2)ccc1O | > 100 µM | > 100 µM | – | > 100 µM | – | > 100 µM | > 100 µM | – | – | – | – | – | – | – | – | – | – | – | – | – |
| N/C=N/S(=O)(=O)c1ccc(NC(=O)COC(=O)c2cccc3c(=O)c4ccccc4[nH]c23)cc1 | > 100 µM | – | – | – | > 100 µM | – | > 100 µM | > 100 µM | – | – | – | – | – | – | – | – | – | – | – | – |
| COc1cc2c3c(n(CCCN(CCCN(CCCn4c5c(c6ccccc6c4=O)C(=O)c4ccccc4-5)C(=O)OC(C)(C)C)C(=O)OC(C)(C)C)c(=O)c2cc1OC)-c1cc2c(cc1C3=O)OCO2 | > 100 µM | – | > 100 µM | > 100 µM | – | > 100 µM | > 100 µM | > 100 µM | > 100 µM | – | > 100 µM | 33.6 µM | > 100 µM | > 100 µM | > 100 µM | > 100 µM | > 100 µM | – | – | – |
| O=Cc1cccc2ccc3ccccc3c12 | 88.5 µM | 94 µM | – | 43.1 µM | 40.4 µM | 38 µM | 49.7 µM | 43.6 µM | 38.3 µM | 54.7 µM | – | – | – | – | – | – | – | – | – | – |
| N#CCCN(CCC#N)c1ccc(/C=C(/NC(=O)c2cc([N+](=O)[O-])ccc2Cl)C(=O)NN)cc1 | > 100 µM | > 100 µM | > 100 µM | > 100 µM | > 100 µM | > 100 µM | > 100 µM | > 100 µM | – | – | – | – | – | – | – | – | – | – | – | – |
| Nc1nc(N)c(CCCCc2ccccc2)c(C=O)n1 | 39.1 µM | 76.6 µM | – | 43.3 µM | 32.6 µM | 40.3 µM | 36.3 µM | 38 µM | – | – | – | – | – | – | – | – | – | – | – | – |
| CCc1ccccc1NC(=O)C(C#N)C1=C(Cl)C(=O)c2ccccc2C1=O (stereo not given) | 27.9 µM | – | > 100 µM | 49.8 µM | > 100 µM | 37.2 µM | 19.5 µM | 35.4 µM | 34.2 µM | 60.6 µM | – | – | – | – | – | – | – | – | – | – |
| COc1ccc2c(c1)Oc1cc(O)ccc1[C@H]2c1ccccc1C(=O)NC(C)c1ccccc1 (stereo not given in full) | 31.6 µM | 30.3 µM | – | 45.8 µM | 29.4 µM | 82.2 µM | 46.2 µM | 35 µM | – | – | – | – | – | – | – | – | – | – | – | – |
| Cc1ccc([Se](=C(C(=O)c2ccccc2)C(=O)c2ccccc2)c2ccc(C)cc2)cc1 | 36.7 µM | – | 33.2 µM | > 100 µM | 74.1 µM | > 100 µM | 50.3 µM | > 100 µM | > 100 µM | 72.9 µM | – | – | – | – | – | – | – | – | – | – |
| CC(=O)c1ccccc1NC(=O)C(=O)C(C(=O)c1ccc2ccccc2c1)C1OC(=O)c2ccccc21 (stereo not given) | 37.9 µM | 18.3 µM | – | 51 µM | 54.3 µM | 24.9 µM | 23.3 µM | 25.6 µM | – | – | – | – | – | – | – | – | – | – | – | – |
| COc1cc2c(cc1OC)C(C#N)N(C(=O)c1ccccc1)C=C2OC(=O)c1ccccc1 (stereo not given) | > 100 µM | > 100 µM | > 100 µM | 86 µM | 47.4 µM | 54.7 µM | 50.2 µM | 40 µM | – | – | – | – | – | – | – | – | – | – | – | – |
| O=C(Cc1ccccc1[N+](=O)[O-])C(CO)c1ccccc1[N+](=O)[O-] (stereo not given) | > 100 µM | > 100 µM | – | > 100 µM | > 100 µM | > 100 µM | > 100 µM | > 100 µM | – | – | – | – | – | – | – | – | – | – | – | – |
| O=C(/C=C/C12c3ccccc3C(c3ccccc31)C1C(=O)N(c3ccc(Cl)cc3)C(=O)C12)c1ccccn1 (stereo not given) | 1.57 µM | 0.658 µM | > 100 µM | > 28.8 µM | 0.52 µM | 2.74 µM | 0.639 µM | 1.05 µM | > 100 µM | – | 0.32 µM | 0.241 µM | 0.672 µM | 0.529 µM | 0.332 µM | 0.242 µM | 0.256 µM | 0.244 µM | 0.224 µM | – |
| c1ccc2c(c1)SC(=C1Sc3ccccc3S1)S2 | > 100 µM | > 100 µM | – | > 100 µM | > 100 µM | – | > 100 µM | 73.3 µM | – | – | – | – | – | – | – | – | – | – | – | – |
| O=C1/C(=C/c2ccc([N+](=O)[O-])s2)Oc2cc(Cl)ccc21 | > 100 µM | – | 1.24 µM | – | 0.898 µM | 3.33 µM | – | 11.6 µM | > 100 µM | 5.43 µM | 2.36 µM | 0.303 µM | – | 1.45 µM | 3.02 µM | – | 2.04 µM | – | 0.325 µM | 0.519 µM |
| C/C(=N\NC(=S)N1CCN(c2ccccn2)CC1)c1ccccn1 | 18.5 µM | 15.3 µM | 2.06 µM | 14.2 µM | 14.2 µM | 12.9 µM | 12.8 µM | 17.6 µM | – | 27.9 µM | – | 0.0167 µM | – | 0.231 µM | – | 0.406 µM | – | 0.252 µM | – | 1.28 µM |
| Cc1cc(=O)[nH]c(CNC(=O)c2ccc3ccccc3c2)n1 | > 100 µM | > 100 µM | > 100 µM | > 100 µM | > 100 µM | > 100 µM | > 100 µM | > 100 µM | – | – | – | – | – | – | – | – | – | – | – | – |
| OCC1OC2c3ccccc3COC2C1OCc1ccccc1 (stereo not given) | > 100 µM | > 100 µM | > 100 µM | – | > 100 µM | > 100 µM | > 100 µM | > 100 µM | – | – | – | – | – | – | – | – | – | – | – | – |
